# Data reported in patent US9238796B2, “Cell growth-promoting peptide and use thereof” (TOAGOSEI CO., LTD., priority 2010, dated 2016).
# No end group written: not given here.
# Experiments:
# [1] = test system: Rat bone marrow-derived stem cells (mesenchymal stem cells); assay: Evaluation of cell growth-promoting activity, WST-8 colorimetric method (Example 5); type: cell-based; conditions: WST-8 absorbance at 450 nm, peptide approximately 2 μM, bFGF 10 ng/mL; for OD450 at the start of cultivation: day 0; for OD450 after 4 days: day 4
# Procedure: Experimental sections were set up that used the cell growth-promoting peptides obtained in Example 4 (samples 22 to 42) as a cell growth promoter and that used a commercially available bFGF as a cell growth promoter as a comparative example. For the control, a peptide-free section (the bFGF was also not added) was set up.
# (§1) The details of the evaluation testing are provided below. Each synthesized sample peptide was dissolved in PBS (phosphate-buffered physiological saline) to prepare a stock solution with a peptide concentration of 1 mM.
# (§2) Rat bone marrow-derived stem cells (mesenchymal stem cells) were used as the test cells. Specifically, the test stem cells were cultured by passage on Dulbecco's MEM medium (DMEM medium: Gibco product) containing 10% fetal bovine serum (FBS: Gibco product), 2 mM of L-glutamine, 50 unit/mL of penicillin, and 50 μg/mL of streptomycin. From the second passage to the fourth passage (passages 2 to 4) were used in this evaluation testing.
# (§3) Thus, the test stem cells were preliminarily recovered by treatment with a 0.05% trypsin-0.53 mM EDTA solution; a test stem cell solution, prepared with the DMEM medium containing 10 ng/mL of bFGF to provide 1×10^4 cells/mL, was seeded to each well of a 96-well plate to provide a cell count of 1×10^3 per well; and pre-cultivation was carried out overnight. The amount of medium was brought to 100 μL per well for this.
# The medium in each well was then exchanged for fresh medium to which a stock solution of a peptide selected from sample 22 to 42 had been added, so as to give a concentration of the peptide in each well of approximately 2 μM. For comparison, in some wells the medium in the well was exchanged for fresh medium to which a commercially available bFGF (product of PeproTech) had been added to give a concentration of 10 ng/mL (the bFGF experimental section in Table 6).
# (§4) After the addition of the sample peptide or bFGF as indicated above, the 96-well plate was placed in a CO2 incubator and cultivation at quiescence was carried out at 37° C. under 5% CO2. Medium exchange was performed every other day. The exchange medium was the same as that used at the start of cultivation (i.e., the same sample peptide or bFGF was also added to the exchange medium as in the sample peptide addition section or bFGF addition section).
# During this cultivation test, a “water-soluble tetrazolium salt (WST-8)” was added as a chromogenic reagent to some wells at the start of cultivation (day 0) and at four days after the start of cultivation (day 4). After incubation for 2 hours after the addition, the cell culture fluid to which the chromogenic reagent had been added was recovered. The extent of cell growth was evaluated by a colorimetric method in which, based on reduction of the tetrazolium salt, the absorbance (OD450) at a wavelength of 450 nm was measured.
# [2] = test system: Rat bone marrow-derived stem cells (mesenchymal stem cells); assay: Evaluation of cell growth-promoting activity, WST-8 colorimetric method (Example 2); type: cell-based; conditions: WST-8 absorbance at 450 nm, peptide approximately 2 μM, bFGF 10 ng/mL; for OD450 at the start of cultivation: day 0; for OD450 after 2 days: day 2; for OD450 after 4 days: day 4
# Procedure: Experimental sections were set up that used the cell growth-promoting peptides obtained in Example 1 (samples 1 to 21) as a cell growth promoter and that used a commercially available bFGF as a cell growth promoter as a comparative example. For the control, a peptide-free section (the bFGF was also not added) was set up.
# as §1, §2, §3
# The medium in each well was then exchanged for fresh medium to which a stock solution of a peptide selected from sample 1 to 21 had been added, so as to give a concentration of the peptide in each well of approximately 2 μM. For comparison, in some wells the medium in the well was exchanged for fresh medium to which a commercially available bFGF (product of PeproTech) had been added to give a concentration of 10 ng/mL (the bFGF experimental section in Table 3).
# as §4
# During this cultivation test, a “water-soluble tetrazolium salt (WST-8)” was added as a chromogenic reagent to some wells at the start of cultivation (day 0), at two days after the start of cultivation (day 2), and at four days after the start of cultivation (day 4). After incubation for 2 hours after the addition, the cell culture fluid to which the chromogenic reagent had been added was recovered. The extent of cell growth was evaluated by a colorimetric method in which, based on reduction of the tetrazolium salt, the absorbance (OD450) at a wavelength of 450 nm was measured.
Sequence,OD450 at the start of cultivation [1],OD450 after 4 days [1],OD450 at the start of cultivation [2],OD450 after 2 days [2],OD450 after 4 days [2]
AAWTARAGKKRTLRKNDRKKR (AAWTARAGKKRTLRKNDRKKR-NH2) [compound 31],0.051,0.401,–,–,–
AAWTVRAGKKRTLRKNDRKKR (AAWTVRAGKKRTLRKNDRKKR-NH2) [compound 10],–,–,0.058,0.149,0.389
ALLLLAAWTARAGKKRTLRKNDRKKR (ALLLLAAWTARAGKKRTLRKNDRKKR-NH2) [compound 26],0.051,0.509,–,–,–
ALLLLAAWTVRAGKKRTLRKNDRKKR (ALLLLAAWTVRAGKKRTLRKNDRKKR-NH2) [compound 5],–,–,0.058,0.189,0.483
AWTARAGKKRTLRKNDRKKR (AWTARAGKKRTLRKNDRKKR-NH2) [compound 32],0.051,0.433,–,–,–
AWTVRAGKKRTLRKNDRKKR (AWTVRAGKKRTLRKNDRKKR-NH2) [compound 11],–,–,0.058,0.169,0.403
GLALLLLAAWTARAGKKRTLRKNDRKKR (GLALLLLAAWTARAGKKRTLRKNDRKKR-NH2) [compound 24],0.051,0.327,–,–,–
LAAWTARAGKKRTLRKNDRKKR (LAAWTARAGKKRTLRKNDRKKR-NH2) [compound 30],0.051,0.413,–,–,–
LAAWTVRAGKKRTLRKNDRKKR (LAAWTVRAGKKRTLRKNDRKKR-NH2) [compound 9],–,–,0.058,0.179,0.398
LALLLLAAWTARAGKKRTLRKNDRKKR (LALLLLAAWTARAGKKRTLRKNDRKKR-NH2) [compound 25],0.051,0.319,–,–,–
LALLLLAAWTVRAGKKRTLRKNDRKKR (LALLLLAAWTVRAGKKRTLRKNDRKKR-NH2) [compound 4],–,–,0.058,0.136,0.304
LLAAWTARAGKKRTLRKNDRKKR (LLAAWTARAGKKRTLRKNDRKKR-NH2) [compound 29],0.051,0.434,–,–,–
LLAAWTVRAGKKRTLRKNDRKKR (LLAAWTVRAGKKRTLRKNDRKKR-NH2) [compound 8],–,–,0.058,0.168,0.418
LLLAAWTARAGKKRTLRKNDRKKR (LLLAAWTARAGKKRTLRKNDRKKR-NH2) [compound 28],0.051,0.532,–,–,–
LLLAAWTVRAGKKRTLRKNDRKKR (LLLAAWTVRAGKKRTLRKNDRKKR-NH2) [compound 7],–,–,0.058,0.176,0.499
LLLLAAWTARAGKKRTLRKNDRKKR (LLLLAAWTARAGKKRTLRKNDRKKR-NH2) [compound 27],0.051,0.511,–,–,–

Sequence,OD450 at the start of cultivation [1],OD450 after 4 days [1],OD450 at the start of cultivation [2],OD450 after 2 days [2],OD450 after 4 days [2]
LLLLAAWTVRAGKKRTLRKNDRKKR (LLLLAAWTVRAGKKRTLRKNDRKKR-NH2) [compound 6],–,–,0.058,0.186,0.483
MLPGLALGKKRTLRKNDRKKR (MLPGLALGKKRTLRKNDRKKR-NH2) [compound 42],0.051,0.346,–,–,–
MLPSLALGKKRTLRKNDRKKR (MLPSLALGKKRTLRKNDRKKR-NH2) [compound 21],–,–,0.058,0.155,0.332
MLPSLALLGKKRTLRKNDRKKR (MLPSLALLGKKRTLRKNDRKKR-NH2) [compound 20],–,–,0.058,0.158,0.320
MLPSLALLLGKKRTLRKNDRKKR (MLPSLALLLGKKRTLRKNDRKKR-NH2) [compound 19],–,–,0.058,0.163,0.478
MLPSLALLLLAAGKKRTLRKNDRKKR (MLPSLALLLLAAGKKRTLRKNDRKKR-NH2) [compound 16],–,–,0.058,0.172,0.525
MLPSLALLLLAAWGKKRTLRKNDRKKR (MLPSLALLLLAAWGKKRTLRKNDRKKR-NH2) [compound 15],–,–,0.058,0.133,0.276
MLPSLALLLLAAWTGKKRTLRKNDRKKR (MLPSLALLLLAAWTGKKRTLRKNDRKKR-NH2) [compound 14],–,–,0.058,0.132,0.293
MLPSLALLLLAAWTVGKKRTLRKNDRKKR (MLPSLALLLLAAWTVGKKRTLRKNDRKKR-NH2) [compound 13],–,–,0.058,0.123,0.232
MLPSLALLLLAAWTVRAGKKRTLRKNDRKKR (MLPSLALLLLAAWTVRAGKKRTLRKNDRKKR-NH2) [sample 1],–,–,0.058,0.132,0.243
MLPSLALLLLAGKKRTLRKNDRKKR (MLPSLALLLLAGKKRTLRKNDRKKR-NH2) [compound 17],–,–,0.058,0.176,0.468
MLPSLALLLLGKKRTLRKNDRKKR (MLPSLALLLLGKKRTLRKNDRKKR-NH2) [compound 18],–,–,0.058,0.184,0.505
PSLALLLLAAWTVRAGKKRTLRKNDRKKR (PSLALLLLAAWTVRAGKKRTLRKNDRKKR-NH2) [sample 2],–,–,0.058,0.136,0.297
SLALLLLAAWTVRAGKKRTLRKNDRKKR (SLALLLLAAWTVRAGKKRTLRKNDRKKR-NH2) [sample 3],–,–,0.058,0.139,0.293
WTVRAGKKRTLRKNDRKKR (WTVRAGKKRTLRKNDRKKR-NH2) [compound 12],–,–,0.058,0.181,0.388
